Literature values in patent publication US20240173272A1 (LUPIN ATLANTIS HOLDINGS SA, priority 2021, published 2024).

Key:
[1] = weak base
[2] = oral administration

pKa [1]: about 9.1
bioavailability [2]: about 90%
Compound: Cc1cccc(C)c1OCC(C)N (centres unmarked) [Mexiletine]
